Consider eight compounds from US9777001B2 (priority 2014, dated 2017).

Usually Ki stands for the equilibrium dissociation constant of an inhibitor or competing ligand from its target. Read a low Ki as higher affinity.

Structures are written as SMILES. Where a name gives a salt, the structure may show the parent alone.

The target of this experiment is human plasma kallikrein (Homo sapiens, UniProt P03952). The experiment can be described thus: biochemical. The settings on record: purified human plasma kallikrein, substrate S-2302, sodium phosphate buffer pH 7.5.
Sequence of human plasma kallikrein (P03952 391-638 limits assumed): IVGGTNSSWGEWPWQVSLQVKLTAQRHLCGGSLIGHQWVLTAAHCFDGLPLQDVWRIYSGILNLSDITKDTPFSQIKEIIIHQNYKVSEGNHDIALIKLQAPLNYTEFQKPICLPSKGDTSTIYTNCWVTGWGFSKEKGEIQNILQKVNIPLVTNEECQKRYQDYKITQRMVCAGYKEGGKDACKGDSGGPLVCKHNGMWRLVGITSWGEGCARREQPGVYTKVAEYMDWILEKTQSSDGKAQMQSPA
Sequence of human plasma kallikrein (P03952 20-390 partner limits assumed): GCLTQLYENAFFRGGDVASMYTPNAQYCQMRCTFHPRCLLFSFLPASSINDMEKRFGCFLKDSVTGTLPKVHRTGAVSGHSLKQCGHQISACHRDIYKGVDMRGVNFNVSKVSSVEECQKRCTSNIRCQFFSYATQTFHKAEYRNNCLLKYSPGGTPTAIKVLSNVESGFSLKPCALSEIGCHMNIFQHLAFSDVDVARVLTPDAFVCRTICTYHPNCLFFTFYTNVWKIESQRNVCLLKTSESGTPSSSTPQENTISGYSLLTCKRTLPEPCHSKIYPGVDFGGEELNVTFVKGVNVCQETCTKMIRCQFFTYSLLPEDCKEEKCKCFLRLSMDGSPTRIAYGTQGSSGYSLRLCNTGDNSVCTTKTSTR
Consider `C[C@@H]1CCC[C@H](n2cnc(-c3cc(Cl)ccc3-n3cc(O)nn3)cc2=O)c2cc(ccn2)-c2cc(F)ccc2NC1=O` [Example 139, (10R,14S)-14-{4-[5-chloro-2-(4-hydroxy-1H-1,2,3-triazol-1-yl)phenyl]-6-oxo-1,6-dihydropyrimidin-1-yl}-4-fluoro-10-methyl-8,16-diazatricyclo[13.3.1.0^2,7]nonadeca-1(19),2(7),3,5,15,17-hexaen-9-one trifluoroacetate], for which affinity was put at a Ki of 510 nM.

`CCOc1cn(-c2ccc(Cl)c(F)c2-c2cc(=O)n([C@H]3CCC[C@@H](C)C(=O)Nc4ccc(F)cc4-c4ccnc3c4)cn2)nn1` [Example 136, (10R,14S)-14-{4-[3-chloro-6-(4-ethoxy-1H-1,2,3-triazol-1-yl)-2-fluorophenyl]-6-oxo-1,6-dihydropyrimidin-1-yl}-4-fluoro-10-methyl-8,16-diazatricyclo [13.3.1.0^2,7]nonadeca-1(19),2(7),3,5,15,17-hexaen-9-one trifluoroacetate] yielded a Ki of 76 nM.

Compound `COC(=O)Nc1ccc2c(c1)NC(=O)[C@H](C)CCC[C@H](n1cnc(-c3cccc(Cl)c3F)cc1=O)c1cc-2ccn1` [Example 45, methyl N-[(10R,14S)-14-[4-(3-chloro-2-fluorophenyl)-6-oxo-1,6-dihydropyrimidin-1-yl]-10-methyl-9-oxo-8,16-diazatricyclo[13.3.1.0^2,7]nonadeca-1(18),2,4,6,15(19),16-hexaen-5-yl]carbamate trifluoroacetate] gave a Ki of 78 nM.

`C[C@@H]1CCC[C@H](n2cnc(-c3cc(Cl)ccc3-n3cc(C(F)(F)F)nn3)cc2=O)c2cc(ccn2)-c2cc(F)ccc2NC1=O` [Example 135, (10R,14S)-14-(4-{5-chloro-2-[4-(trifluoromethyl)-1H-1,2,3-triazol-1-yl]phenyl}-6-oxo-1,6-dihydropyrimidin-1-yl)-4-fluoro-10-methyl-8,16-diazatricyclo [13.3.1.0^2,7]nonadeca-1(19),2(7),3,5,15,17-hexaen-9-one trifluoroacetate] registered a Ki of 29 nM.

The compound `C[C@@H]1CCC[C@H](n2cnc(-c3c(Cl)ccc(Cl)c3F)cc2=O)c2cc(ccn2)-c2cc(F)ccc2NC1=O` [Example 147, (10R,14S)-14-[4-(3,6-dichloro-2-fluorophenyl)-6-oxo-1,6-dihydropyrimidin-1-yl]-4-fluoro-10-methyl-8,16-diazatricyclo[13.3.1.0^2,7]nonadeca-1(19),2(7),3,5,15,17-hexaen-9-one trifluoroacetate] yielded a Ki of 210 nM.

Consider `C[C@@H]1CCC[C@H](n2cnc(-c3c(-n4ccnn4)ccc(Cl)c3F)cc2=O)c2cc(ccn2)-c2c(ccc(F)c2F)NC1=O` [Example 54, (10R,14S)-14-{4-[3-chloro-2-fluoro-6-(1H-1,2,3-triazol-1-yl)phenyl]-6-oxo-1,6-dihydropyrimidin-1-yl}-3,4-difluoro-10-methyl-8,16-diazatricyclo[13.3.1.0^2,7]nonadeca-1(19),2(7),3,5,15,17-hexaen-9-one trifluoroacetate], for which the Ki came out at 41 nM.

In turn, `C[C@@H]1CCC[C@H](n2cnc(-c3cc(Cl)ccc3-c3cnn(C(F)F)c3)cc2=O)c2cc(ccn2)-c2cc(F)ccc2NC1=O` [Example 124, (10R,14S)-14-(4-{5-chloro-2-[1-(difluoromethyl)-1H-pyrazol-4-yl]phenyl}-6-oxo-1,6-dihydropyrimidin-1-yl)-4-fluoro-10-methyl-8,16-diazatricyclo [13.3.1.0^2,7]nonadeca-1(19),2(7),3,5,15,17-hexaen-9-one trifluoroacetate] came in with a Ki of 780 nM.

`COC(=O)Nc1ccc2c(c1)NC(=O)[C@H](C)CCC[C@H](n1cnc(-c3cc(Cl)cc4cnn(C)c34)cc1=O)c1cc-2ccn1` [Example 120, N-[(10R,14S)-14-[4-(5-chloro-1-methyl-1H-indazol-7-yl)-6-oxo-1,6-1-yl]-10-methyl-9-oxo-8,16-diazatricyclo[13.3.1.0^2,7]nonadeca-1(19),2(7),3,5,15,17-hexaen-5-yl]carbamate] had a Ki of 180 nM.
